According to US9161990B2, “Hydrochloride salts of a glycopeptide-cephalosporin antbiotic compond” (THERAVANCE BIOPHARMA ANTIBIOTICS IP, LLC, priority 2013, dated 2015):
Where a name gives a salt, the structure may show the parent alone. Values belong to the molecule of their own block, whether it stands above or below them.

Legend:
[1] = Storage stability of lyophilized hydrochloride salts (purity by HPLC); type: physicochemical; conditions: for storage stability compared to the trihydrochloride salt: stored for 12 months at either room temperature or 2 to 8° C.
Method: (§1) All solvents were HPLC grade and were purchased from Honeywell Burdick & Jackson (Muskegon, Mich. 49442). Phosphoric acid (85% w/w) and sodium dihydrogen phosphate were HPLC grade and were purchased from Fluka (Sigma-Aldrich, St. Louis, Mo. 63103). All reagents were used without further purification.
(§2) Test samples were filtered through a 0.2 μm polyvinylidene fluoride (PVDF) filter before analysis and the first 1 mL was discarded.
(§3) Test sample purity was determined based on the integrated peak area (area-under-the-curve or AUC) for the compound as a percentage of all integrated peaks. The concentration (assay value) of the compound in a test sample was determined by comparison with a reference standard.
(§4) One rack was stored protected from light in a drawer at room temperature and the other rack was stored in a refrigerator at 2 to 8° C. A representative vial of each type of stability sample was analyzed by HPLC after storage for 1, 3, 6 and 12 months to determine purity.

[2] = Storage stability of hydrochloride salts in a lyophilized composition containing sucrose and glycine (purity by HPLC); type: physicochemical; conditions: for Δ (change in percent purity from time = 0) / Purity (HPLC area percent): composition containing sucrose and glycine; for decrease in purity: formulated with sucrose and glycine; for storage stability when formulated with sucrose and glycine: compared to the salt alone
Method: as §1, §2, §3, §4

[3] = refrigerated temperature (2 to 8° C.), 1 month, dihydrochloride
[4] = refrigerated temperature (2 to 8° C.), 3 months, dihydrochloride
[5] = refrigerated temperature (2 to 8° C.), 6 months, dihydrochloride
[6] = refrigerated temperature (2 to 8° C.), 12 months, dihydrochloride
[7] = room temperature, 1 month, dihydrochloride
[8] = room temperature, 1 month, listed as Di HCl, dihydrochloride
[9] = room temperature, 3 months, dihydrochloride
[10] = room temperature, 3 months, listed as Di HCl, dihydrochloride
[11] = room temperature, 6 months, dihydrochloride
[12] = room temperature, 6 months, listed as Di HCl, dihydrochloride
[13] = room temperature, 12 months, dihydrochloride
[14] = room temperature, 12 months, listed as Di HCl, dihydrochloride
[15] = stored at 2 to 8° C. for 12 months, listed as dihydrochloride salt, dihydrochloride
[16] = stored at room temperature for 12 months, listed as dihydrochloride salt, dihydrochloride
[17] = stored at room temperature for 12 months
[18] = refrigerated temperature (2 to 8° C.), 1 month, monohydrochloride
[19] = refrigerated temperature (2 to 8° C.), 3 months, monohydrochloride
[20] = refrigerated temperature (2 to 8° C.), 6 months, monohydrochloride
[21] = refrigerated temperature (2 to 8° C.), 12 months, monohydrochloride
[22] = room temperature, 1 month, listed as Mono HCl, monohydrochloride
[23] = room temperature, 1 month, monohydrochloride
[24] = room temperature, 3 months, listed as Mono HCl, monohydrochloride
[25] = room temperature, 3 months, monohydrochloride
[26] = room temperature, 6 months, listed as Mono HCl, monohydrochloride
[27] = room temperature, 6 months, monohydrochloride
[28] = room temperature, 12 months, listed as Mono HCl, monohydrochloride
[29] = room temperature, 12 months, monohydrochloride
[30] = stored at 2 to 8° C. for 12 months, listed as monohydrochloride salt, monohydrochloride
[31] = stored at room temperature for 12 months, listed as monohydrochloride salt, monohydrochloride

Purity (HPLC area percent) [1, 3]: 89.9%
Δ (change in percent purity from time = 0) [1, 3]: −0.2%
Purity (HPLC area percent) [1, 4]: 89.4%
Δ (change in percent purity from time = 0) [1, 4]: −0.7%
Δ (change in percent purity from time = 0) [1, 5]: 0.7%
Purity (HPLC area percent) [1, 6]: 87.2%
Δ (change in percent purity from time = 0) [1, 6]: −2.9%
Purity (HPLC area percent) ([1]; refrigerated temperature (2 to 8° C.), time 0 months, dihydrochloride): 90.1%
Purity (HPLC area percent) [1, 7]: 85.3%
Δ (change in percent purity from time = 0) [1, 7]: −4.8%
Purity (HPLC area percent) [1, 8]: 85.3%
Δ (change in percent purity from time = 0) [1, 8]: −4.8%
Purity (HPLC area percent) [1, 9]: 82.5%
Δ (change in percent purity from time = 0) [1, 9]: −7.6%
Purity (HPLC area percent) [1, 10]: 82.5%
Δ (change in percent purity from time = 0) [1, 10]: −7.6%
Purity (HPLC area percent) [1, 11]: 81.4%
Δ (change in percent purity from time = 0) [1, 11]: −8.7%
Purity (HPLC area percent) [1, 12]: 81.4%
Δ (change in percent purity from time = 0) [1, 12]: −8.7%
Purity (HPLC area percent) [1, 13]: 69.6%
Δ (change in percent purity from time = 0) [1, 13]: −20.5%
Purity (HPLC area percent) [1, 14]: 69.6%
Δ (change in percent purity from time = 0) [1, 14]: −20.5%
Purity (HPLC area percent) ([1]; room temperature, time 0 months, dihydrochloride): 90.1%
Purity (HPLC area percent) ([1]; room temperature, time 0 months, listed as Di HCl, dihydrochloride): 90.1%
decrease in purity [1, 15]: 2.9%
decrease in purity [1, 16]: 20.5%
Δ (change in percent purity from time = 0) [2, 3]: −0.3%
Purity (HPLC area percent) [2, 4]: 89.4%
Δ (change in percent purity from time = 0) [2, 4]: −0.7%
Δ (change in percent purity from time = 0) [2, 5]: 0.7%
Purity (HPLC area percent) [2, 6]: 87.2%
Δ (change in percent purity from time = 0) [2, 6]: −2.9%
Δ (change in percent purity from time = 0) [2, 7]: −0.8%
Δ (change in percent purity from time = 0) [2, 9]: −2.9%
Δ (change in percent purity from time = 0) [2, 11]: 0.2%
Δ (change in percent purity from time = 0) [2, 13]: −6.8%
decrease in purity [2, 15]: 2.9%
decrease in purity [2, 16]: 6.8%
storage stability when formulated with sucrose and glycine [2, 17]: more stable
Structure (SMILES): CN[C@H](CC(C)C)C(=O)NC1C(=O)N[C@@H](CC(N)=O)C(=O)N[C@H]2C(=O)N[C@H]3C(=O)N[C@H](C(=O)N[C@H](C(=O)NCCCO/N=C(\C(=O)N[C@@H]4C(=O)N5C(C(=O)[O-])=C(C[n+]6ccccc6)CS[C@H]45)c4nc(N)sc4Cl)c4cc(O)cc(O)c4-c4cc3ccc4O)[C@H](O)c3ccc(c(Cl)c3)Oc3cc2cc(c3O[C@@H]2O[C@H](CO)[C@@H](O)[C@H](O)[C@H]2O[C@H]2C[C@](C)(N)[C@H](O)[C@H](C)O2)Oc2ccc(cc2Cl)[C@H]1O (stereo partly drawn) [Dihydrochloride, 26-[[[3-[[(Z)-[1-(2-amino-5-chloro-4-thiazolyl)-2-[[(6R,7R)-2-carboxy-8-oxo-3-(pyridiniomethyl)-5-thia-1-azabicyclo[4.2.0]oct-2-en-7-yl]amino]-2-oxoethylidene]amino]oxy]propyl]amino]carbonyl]-26-decarboxyvancomycin dihydrochloride]
storage stability compared to the trihydrochloride salt [1]: significantly more stable than the trihydrochloride salt

Purity (HPLC area percent) [1, 18]: 90.0%
Δ (change in percent purity from time = 0) [1, 18]: −0.4%
Purity (HPLC area percent) [1, 19]: 90.2%
Δ (change in percent purity from time = 0) [1, 19]: −0.2%
Δ (change in percent purity from time = 0) [1, 20]: 0.0%
Purity (HPLC area percent) [1, 21]: 87.4%
Δ (change in percent purity from time = 0) [1, 21]: −3.0%
Purity (HPLC area percent) [1, 22]: 89.3%
Δ (change in percent purity from time = 0) [1, 22]: −1.1%
Purity (HPLC area percent) [1, 23]: 89.3%
Δ (change in percent purity from time = 0) [1, 23]: −1.1%
Purity (HPLC area percent) [1, 24]: 82.0%
Δ (change in percent purity from time = 0) [1, 24]: −8.4%
Purity (HPLC area percent) [1, 25]: 82.0%
Δ (change in percent purity from time = 0) [1, 25]: −8.4%
Purity (HPLC area percent) [1, 26]: 79.9%
Δ (change in percent purity from time = 0) [1, 26]: −10.5%
Purity (HPLC area percent) [1, 27]: 79.9%
Δ (change in percent purity from time = 0) [1, 27]: −10.5%
Purity (HPLC area percent) [1, 28]: 67.0%
Δ (change in percent purity from time = 0) [1, 28]: −23.4%
Purity (HPLC area percent) [1, 29]: 67.0%
Δ (change in percent purity from time = 0) [1, 29]: −23.4%
decrease in purity [1, 30]: 3.0%
decrease in purity [1, 31]: 23.4%
Purity (HPLC area percent) [2, 18]: 90.7%
Δ (change in percent purity from time = 0) [2, 18]: 0.3%
Purity (HPLC area percent) [2, 19]: 88.9%
Δ (change in percent purity from time = 0) [2, 19]: −1.5%
Purity (HPLC area percent) [2, 20]: 91.7%
Δ (change in percent purity from time = 0) [2, 20]: 1.3%
Purity (HPLC area percent) [2, 21]: 88.5%
Δ (change in percent purity from time = 0) [2, 21]: −1.9%
Purity (HPLC area percent) [2, 23]: 89.0%
Δ (change in percent purity from time = 0) [2, 23]: −1.4%
Δ (change in percent purity from time = 0) [2, 25]: −3.5%
Δ (change in percent purity from time = 0) [2, 27]: −2.5%
Δ (change in percent purity from time = 0) [2, 29]: −8.9%
decrease in purity [2, 30]: 1.9%
decrease in purity [2, 31]: 8.9%
storage stability when formulated with sucrose and glycine [2, 17]: more stable
Structure (SMILES): CN[C@H](CC(C)C)C(=O)N[C@H]1C(=O)N[C@@H](CC(N)=O)C(=O)N[C@H]2C(=O)N[C@H]3C(=O)N[C@H](C(=O)N[C@H](C(=O)NCCCO/N=C(\C(=O)N[C@@H]4C(=O)N5C(C(=O)[O-])=C(C[n+]6ccccc6)CS[C@H]45)c4nc(N)sc4Cl)c4cc(O)cc(O)c4-c4cc3ccc4O)[C@H](O)c3ccc(c(Cl)c3)Oc3cc2cc(c3O[C@@H]2O[C@H](CO)[C@@H](O)[C@H](O)[C@H]2O[C@H]2C[C@](C)(N)[C@H](O)[C@H](C)O2)Oc2ccc(cc2Cl)[C@H]1O [Monohydrochloride, 26-[[[3-[[(Z)-[1-(2-amino-5-chloro-4-thiazolyl)-2-[[(6R,7R)-2-carboxy-8-oxo-3-(pyridiniomethyl)-5-thia-1-azabicyclo[4.2.0]oct-2-en-7-yl]amino]-2-oxoethylidene]amino]oxy]propyl]amino]carbonyl]-26-decarboxyvancomycin monohydrochloride]
storage stability compared to the trihydrochloride salt [1]: significantly more stable than the trihydrochloride salt
